Experimental data published in PubChem BioAssay (NCI).
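The compound was tested at five concentrations on cells cultured in 96-well plates, with a 48-hour exposure period. TGI denotes the concentration required for complete inhibition of growth.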

What was measured:
Assay in all cases: DTP human tumour cell line panel, 48 h
786-0 renal = test system: 786-0 renal
A498 renal = test system: A498 renal
A549 NSCLC = test system: A549 NSCLC
ACHN renal = test system: ACHN renal
CAKI-1 renal = test system: CAKI-1 renal
CCRF-CEM leukemia = test system: CCRF-CEM leukemia
COLO 205 colon = test system: COLO 205 colon
DU-145 prostate = test system: DU-145 prostate
EKVX NSCLC = test system: EKVX NSCLC
HCC-2998 colon = test system: HCC-2998 colon
HCT-116 colon = test system: HCT-116 colon
HCT-15 colon = test system: HCT-15 colon
HL-60(TB) leukemia = test system: HL-60(TB) leukemia
HOP-62 NSCLC = test system: HOP-62 NSCLC
HOP-92 NSCLC = test system: HOP-92 NSCLC
HT29 colon = test system: HT29 colon
IGROV1 ovarian = test system: IGROV1 ovarian
K-562 leukemia = test system: K-562 leukemia
KM12 colon = test system: KM12 colon
LOX IMVI melanoma = test system: LOX IMVI melanoma
M14 melanoma = test system: M14 melanoma
MALME-3M melanoma = test system: MALME-3M melanoma
MCF7 breast = test system: MCF7 breast
MDA-MB-231 breast = test system: MDA-MB-231 breast
MDA-MB-435 = test system: MDA-MB-435
MDA-N = test system: MDA-N
MOLT-4 leukemia = test system: MOLT-4 leukemia
NCI-H226 lung = test system: NCI-H226 lung
NCI-H23 lung = test system: NCI-H23 lung
NCI-H460 lung = test system: NCI-H460 lung
NCI-H522 lung = test system: NCI-H522 lung
NCI/ADR-RES ovarian = test system: NCI/ADR-RES ovarian
OVCAR-3 ovarian = test system: OVCAR-3 ovarian
OVCAR-4 ovarian = test system: OVCAR-4 ovarian
OVCAR-5 ovarian = test system: OVCAR-5 ovarian
OVCAR-8 ovarian = test system: OVCAR-8 ovarian
PC-3 prostate = test system: PC-3 prostate
RPMI-8226 leukemia = test system: RPMI-8226 leukemia
RXF 393 renal = test system: RXF 393 renal
SF-268 CNS = test system: SF-268 CNS
SF-295 CNS = test system: SF-295 CNS
SF-539 CNS = test system: SF-539 CNS
SK-MEL-2 melanoma = test system: SK-MEL-2 melanoma
SK-MEL-28 melanoma = test system: SK-MEL-28 melanoma
SK-MEL-5 melanoma = test system: SK-MEL-5 melanoma
SK-OV-3 ovarian = test system: SK-OV-3 ovarian
SN12C renal = test system: SN12C renal
SNB-19 CNS = test system: SNB-19 CNS
SNB-75 CNS = test system: SNB-75 CNS
SR leukemia = test system: SR leukemia
SW-620 colon = test system: SW-620 colon
T-47D breast = test system: T-47D breast
TK-10 renal = test system: TK-10 renal
U251 CNS = test system: U251 CNS
UACC-257 melanoma = test system: UACC-257 melanoma
UACC-62 melanoma = test system: UACC-62 melanoma
UO-31 renal = test system: UO-31 renal

Measured: TGI

O=C(CCCN1CC=C(n2c(=O)[nH]c3ccccc32)CC1)c1cccs1
> 100 µM: all assays above
